Tests used:
Format in all cases: cell-based
[1] = test system: Pseudomonas clinical isolate B184; test: Comparative lethality in agar dilution test, isolate B184
Protocol: (§1) 859A2, carbenicillin, and gentamicin were compared in agar dilution, surface-inoculated assays at the minimum bactericidal concentration (MBC), and at 1/2 and 1/4 of the MBC, vs four clinical isolates of Pseudomonas.
(§2) Clinical isolates were supplied on nutrient agar-yeast extract slants. Strains B145 and B184 were reported as non-lactamase-containing strains whereas strains B126 and B189 contained lactamase.
(§3) A loopful of cells of each culture was transferred to 10 ml nutrient broth-yeast (NBY) extract and incubated for 16 hours at 37° C. on the shaker. The inocula were adjusted to O.D.=0.22 at 660 nm with NBY and further diluted with NBY to 1:250,000. One tenth (0.1) ml of the diluted cell suspension was added to plates containing 10 ml of Brain Heart Infusion Agar and spread uniformly over the surface with a sterile glass "hockey stick". Stock solutions of antibiotics at 10 mg/ml were added to 45° C. agar in appropriate amounts. […] After overnight incubation of plates at 37° C., a visual count of colonies was made.

[2] = test system: Pseudomonas clinical isolate B126; test: Comparative lethality in agar dilution test, isolate B126
Protocol: as §1, §2, §3

[3] = test system: Pseudomonas clinical isolate B145; test: Comparative lethality in agar dilution test, isolate B145
Protocol: as §1, §2, §3

[4] = test system: Pseudomonas clinical isolate B189; test: Comparative lethality in agar dilution test, isolate B189
Protocol: as §1, §2, §3

## CC1(C)S[C@@H]2[C@H](NC(=O)C(C(=O)O)c3ccccc3)C(=O)N2[C@H]1C(=O)O (stereo partly drawn) [Carbenicillin, carbenicillin]
[1]; 15.7 μg/ml
  # of Colonies: 75
[1]; 31.3 μg/ml
  # of Colonies: 100
[1]; 62.5 μg/ml
  # of Colonies: 0
[2]; 125 μg/ml
  # of Colonies: 68
[2]; 250 μg/ml
  # of Colonies: 28
[2]; 500 μg/ml
  # of Colonies: 0
[3]; 15.7 μg/ml
  # of Colonies: 368
[3]; 31.3 μg/ml
  # of Colonies: 335
[3]; 62.5 μg/ml
  # of Colonies: 0
[4]; 31.3 μg/ml
  # of Colonies: 333
[4]; 62.5 μg/ml
  # of Colonies: 263
[4]; 125 μg/ml
  # of Colonies: 0

## gentamicin
[1]; 0.39 μg/ml
  # of Colonies: 79
[1]; 0.79 μg/ml
  # of Colonies: 19
[1]; 1.56 μg/ml
  # of Colonies: 0
[2]; 0.39 μg/ml
  # of Colonies: 49
[2]; 0.78 μg/ml
  # of Colonies: 7
[2]; 1.56 μg/ml
  # of Colonies: 0
[3]; 12.5 μg/ml
  # of Colonies: 233
[3]; 25 μg/ml
  # of Colonies: 121
[3]; 50 μg/ml
  # of Colonies: 0
[4]; 0.78 μg/ml
  # of Colonies: 278
[4]; 1.56 μg/ml
  # of Colonies: 53
[4]; 3.12 μg/ml
  # of Colonies: 0

Source: US4521408A, “Antibiotics-859A and production thereof” (priority 1982, dated 1985)
